Results: PubChem BioAssay (NCI)
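The concentration for 50% growth inhibition is given as GI50. TGI: concentration producing complete growth inhibition.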

Legend:
Assay in all cases: NCI-60 cell line screen, 384-well format; in the data active means GI50 below about 0.43 µM; inactive means the rest
786-0 renal = test system: 786-0 renal
A498 renal = test system: A498 renal
A549 NSCLC = test system: A549 NSCLC
ACHN renal = test system: ACHN renal
BT-549 breast = test system: BT-549 breast
CAKI-1 renal = test system: CAKI-1 renal
CCRF-CEM leukemia = test system: CCRF-CEM leukemia
COLO 205 colon = test system: COLO 205 colon
DU-145 prostate = test system: DU-145 prostate
EKVX NSCLC = test system: EKVX NSCLC
HCC-2998 colon = test system: HCC-2998 colon
HCT-116 colon = test system: HCT-116 colon
HCT-15 colon = test system: HCT-15 colon
HL-60(TB) leukemia = test system: HL-60(TB) leukemia
HOP-62 NSCLC = test system: HOP-62 NSCLC
HOP-92 NSCLC = test system: HOP-92 NSCLC
HS 578T breast = test system: HS 578T breast
HT29 colon = test system: HT29 colon
IGROV1 ovarian = test system: IGROV1 ovarian
K-562 leukemia = test system: K-562 leukemia
KM12 colon = test system: KM12 colon
LOX IMVI melanoma = test system: LOX IMVI melanoma
M14 melanoma = test system: M14 melanoma
MALME-3M melanoma = test system: MALME-3M melanoma
MCF7 breast = test system: MCF7 breast
MDA-MB-231 breast = test system: MDA-MB-231 breast
MDA-MB-435 melanoma = test system: MDA-MB-435 melanoma
MDA-MB-468 breast = test system: MDA-MB-468 breast
MOLT-4 leukemia = test system: MOLT-4 leukemia
NCI-H226 lung = test system: NCI-H226 lung
NCI-H23 lung = test system: NCI-H23 lung
NCI-H322M lung = test system: NCI-H322M lung
NCI-H460 NSCLC = test system: NCI-H460 NSCLC
NCI-H522 lung = test system: NCI-H522 lung
NCI/ADR-RES ovarian = test system: NCI/ADR-RES ovarian
OVCAR-3 ovarian = test system: OVCAR-3 ovarian
OVCAR-4 ovarian = test system: OVCAR-4 ovarian
OVCAR-5 ovarian = test system: OVCAR-5 ovarian
OVCAR-8 ovarian = test system: OVCAR-8 ovarian
PC-3 prostate = test system: PC-3 prostate
RPMI-8226 leukemia = test system: RPMI-8226 leukemia
RXF 393 renal = test system: RXF 393 renal
SF-268 CNS = test system: SF-268 CNS
SF-295 CNS = test system: SF-295 CNS
SF-539 CNS = test system: SF-539 CNS
SK-MEL-2 melanoma = test system: SK-MEL-2 melanoma
SK-MEL-28 melanoma = test system: SK-MEL-28 melanoma
SK-MEL-5 melanoma = test system: SK-MEL-5 melanoma
SK-OV-3 ovarian = test system: SK-OV-3 ovarian
SN12C renal = test system: SN12C renal
SNB-19 CNS = test system: SNB-19 CNS
SNB-75 CNS = test system: SNB-75 CNS
SR leukemia = test system: SR leukemia
SW-620 colon = test system: SW-620 colon
T-47D breast = test system: T-47D breast
TK-10 renal = test system: TK-10 renal
U251 glioblastoma = test system: U251 glioblastoma
UACC-257 melanoma = test system: UACC-257 melanoma
UACC-62 melanoma = test system: UACC-62 melanoma
UO-31 renal = test system: UO-31 renal

N#Cc1ccnc(N2C(=O)CC[C@H]2C(=O)N(c2cncc(F)c2)[C@H](C(=O)NC2CC(F)(F)C2)c2ccccc2Cl)c1
> 82.9 µM: TGI (CAKI-1 renal)
inactive: GI50 ([…]-0 renal) > 100 µM | GI50 (A498 renal) > 100 µM | GI50 (A549 NSCLC) > 90.8 µM | GI50 (ACHN renal) > 100 µM | GI50 (BT-549 breast) > 100 µM | GI50 (CAKI-1 renal) > 55.4 µM | GI50 (CCRF-CEM leukemia) > 72.8 µM | GI50 (COLO 205 colon) > 100 µM | GI50 (DU-145 prostate) > 100 µM | GI50 (EKVX NSCLC) > 100 µM | GI50 (HCC-2998 colon) > 100 µM | GI50 (HCT-116 colon) 28.6 µM | GI50 (HCT-15 colon) > 100 µM | GI50 (HL-60(TB) leukemia) > 100 µM | GI50 (HOP-62 NSCLC) > 100 µM | GI50 (HOP-92 NSCLC) 34.3 µM | GI50 (HS 578T breast) > 87.8 µM | GI50 (HT29 colon) > 95.3 µM | GI50 (IGROV1 ovarian) > 100 µM | GI50 (K-562 leukemia) 99.2 µM | GI50 (KM12 colon) > 100 µM | GI50 (LOX IMVI melanoma) > 100 µM | GI50 (M14 melanoma) > 100 µM | GI50 (MALME-3M melanoma) > 100 µM | GI50 (MCF7 breast) > 100 µM | GI50 (MDA-MB-231 breast) > 100 µM | GI50 (MDA-MB-435 melanoma) > 100 µM | GI50 (MDA-MB-468 breast) > 100 µM | GI50 (MOLT-4 leukemia) 30.3 µM | GI50 (NCI-H226 lung) > 84.9 µM | GI50 (NCI-H23 lung) > 89.5 µM | GI50 (NCI-H322M lung) > 100 µM | GI50 (NCI-H460 NSCLC) 89.7 µM | GI50 (NCI-H522 lung) 97.9 µM | GI50 (NCI/ADR-RES ovarian) > 100 µM | GI50 (OVCAR-3 ovarian) > 96.1 µM | GI50 (OVCAR-4 ovarian) > 86.7 µM | GI50 (OVCAR-5 ovarian) > 100 µM | GI50 (OVCAR-8 ovarian) > 100 µM | GI50 (PC-3 prostate) > 100 µM | GI50 (RPMI-8226 leukemia) > 100 µM | GI50 (RXF 393 renal) > 77.2 µM | GI50 (SF-268 CNS) > 100 µM | GI50 (SF-295 CNS) > 100 µM | GI50 (SF-539 CNS) > 100 µM | GI50 (SK-MEL-2 melanoma) > 100 µM | GI50 (SK-MEL-28 melanoma) > 100 µM | GI50 (SK-MEL-5 melanoma) > 100 µM | GI50 (SK-OV-3 ovarian) > 100 µM | GI50 (SN12C renal) > 100 µM | GI50 (SNB-19 CNS) > 100 µM | GI50 (SNB-75 CNS) > 100 µM | GI50 (SR leukemia) 31.4 µM | GI50 (SW-620 colon) > 100 µM | GI50 (T-47D breast) > 100 µM | GI50 (TK-10 renal) > 100 µM | GI50 (U251 glioblastoma) > 100 µM | GI50 (UACC-257 melanoma) > 100 µM | GI50 (UACC-62 melanoma) > 100 µM | GI50 (UO-31 renal) > 100 µM
> 100 µM: TGI (786-0 renal) | TGI (A498 renal) | TGI (A549 NSCLC) | TGI (ACHN renal) | TGI (BT-549 breast) | TGI (CCRF-CEM leukemia) | TGI (COLO 205 colon) | TGI (DU-145 prostate) | TGI (EKVX NSCLC) | TGI (HCC-2998 colon) | TGI (HCT-116 colon) | TGI (HCT-15 colon) | TGI (HL-60(TB) leukemia) | TGI (HOP-62 NSCLC) | TGI (HOP-92 NSCLC) | TGI (HS 578T breast) | TGI (HT29 colon) | TGI (IGROV1 ovarian) | TGI (K-562 leukemia) | TGI (KM12 colon) | TGI (LOX IMVI melanoma) | TGI (M14 melanoma) | TGI (MALME-3M melanoma) | TGI (MCF7 breast) | TGI (MDA-MB-231 breast) | TGI (MDA-MB-435 melanoma) | TGI (MDA-MB-468 breast) | TGI (MOLT-4 leukemia) | TGI (NCI-H226 lung) | TGI (NCI-H23 lung) | TGI (NCI-H322M lung) | TGI (NCI-H460 NSCLC) | TGI (NCI-H522 lung) | TGI (NCI/ADR-RES ovarian) | TGI (OVCAR-3 ovarian) | TGI (OVCAR-4 ovarian) | TGI (OVCAR-5 ovarian) | TGI (OVCAR-8 ovarian) | TGI (PC-3 prostate) | TGI (RPMI-8226 leukemia) | TGI (RXF 393 renal) | TGI (SF-268 CNS) | TGI (SF-295 CNS) | TGI (SF-539 CNS) | TGI (SK-MEL-2 melanoma) | TGI (SK-MEL-28 melanoma) | TGI (SK-MEL-5 melanoma) | TGI (SK-OV-3 ovarian) | TGI (SN12C renal) | TGI (SNB-19 CNS) | TGI (SNB-75 CNS) | TGI (SW-620 colon) | TGI (T-47D breast) | TGI (TK-10 renal) | TGI (U251 glioblastoma) | TGI (UACC-257 melanoma) | TGI (UACC-62 melanoma) | TGI (UO-31 renal)
> 95.8 µM: TGI (SR leukemia)
